Measured values published in patent US20250127790A1, “COMBINATION THERAPY USING VPS34 INHIBITORS” (Deciphera Pharmaceuticals, LLC, priority 2021, published 2025).

Experiments:
4T1 breast cancer cells = experiment: Cytokine secretion assay, combination with cGAMP, 4T1 cells; assay type: cell-based, mouse; settings: 24 hours, 5 μM Compound 1 or 10 μM Compound 2, 10 mg/ml cGAMP
Protocol: 4T1 cells were treated for 24 hours with DMSO or VPS34 inhibitors (5 μM Compound 1 or 10 μM Compound 2) in combination with 10 mg/ml STING agonist cGAMP (green bars). Cells were washed with PBS and RNA was isolated using the PureLink RNA kit (#12183018A, Thermo Fisher Scientific) according to the manufacturer's protocol. Genomic DNA was removed using DNA-binding columns (RNeasy plus kit, #74134, Qiagen) and/or DNase treatment (#12185010, Thermo Fisher Scientific). RNA was quantified using NanoDrop (Thermo Fisher Scientific) and 50 ng/μL RNA was used for cDNA synthesis with SuperScript IV VILO Master Mix (#11756050, Thermo Fisher Scientific). Quantitative RT-PCR (qRT-PCR) was run with diluted cDNA (1:25 or 1:12.5), PowerUp SYBR Green Master Mix (#A25741, Thermo Fisher Scientific), and 200 nM primers (see below) on a CFX Connect RT-PCR system (BioRad). Data was analyzed using the ΔΔCT method. Results are mean±SEM of three independent experiments.
Cell culture medium was centrifuged at 1600 rpm for 10 min at 4° C. and obtained supernatant stored at −80° C. Cytokine levels were quantified using following Meso Scale Discovery (MSD) assays: mouse U-PLEX RANTES/CCL5 (#K152A2K) and U-PLEX IP-10/CXCL10 (#K152UFK). Assays were run on the SECTOR Quickplex Imager and analyzed using Discovery Workbench version 4.0 (MSD).

[1] = system: A-498 renal cell carcinoma cells; experiment: qRT-PCR with siRNA knockdown of STING pathway genes, A-498 cells; assay type: cell-based, Human; settings: 24 h; for increase in mRNA expression of CCL5 / increase in mRNA expression of CXCL10 / increase in mRNA expression of IFNB1 / increase in mRNA expression of IRF7 / IFNB1, IRF7, CCL5 and CXCL10 expression with siRNA knockdown of CGAS / IFNB1, IRF7, CCL5 and CXCL10 expression with siRNA knockdown of STING: 2 μM; for IFNB1, IRF7, CCL5 and CXCL10 expression with siRNA knockdown of CGAS: siCGAS; for IFNB1, IRF7, CCL5 and CXCL10 expression with siRNA knockdown of CGAS / IFNB1, IRF7, CCL5 and CXCL10 expression with siRNA knockdown of STING / IFNB1, IRF7, CCL5 or CXCL10 expression with siRNA knockdown of TBK1: vs compound alone; for IFNB1, IRF7, CCL5 and CXCL10 expression with siRNA knockdown of STING: siSTING; for IFNB1, IRF7, CCL5 or CXCL10 expression with siRNA knockdown of TBK1: siTBK1, 2 μM
Protocol: (§1) A-498 cells were grown in Minimal Essential Medium containing 10% fetal bovine serum. Cells were then incubated for 2 days at 37 degrees Celsius, 5% CO2, and 95% humidity. A498 cells were transfected with scrambled siRNA control (siSCR) or siRNA targeting TBK1 (siTBK1), STING (siSTING) or CGAS (siCGAS). After 48 h cells were treated with DMSO or 2 μM of VPS34 inhibitor (Compound 1 or Compound 2) for 24 h. Cells were washed with PBS and RNA was isolated using the PureLink RNA kit (#12183018A, Thermo Fisher Scientific) according to the manufacturer's protocol. Genomic DNA was removed using DNA-binding columns (RNeasy plus kit, #74134, Qiagen) and/or DNase treatment (#12185010, Thermo Fisher Scientific). RNA was quantified using NanoDrop (Thermo Fisher Scientific) and 50 ng/μL RNA was used for cDNA synthesis with SuperScript IV VILO Master Mix (#11756050, Thermo Fisher Scientific). Quantitative RT-PCR (qRT-PCR) was run with diluted cDNA (1:25 or 1:12.5), PowerUp SYBR Green Master Mix (#A25741, Thermo Fisher Scientific), and 200 nM primers (see below) on a CFX Connect RT-PCR system (BioRad). Data was analyzed using the ΔΔCT method. Results are mean±SEM of three independent experiments.

[2] = system: 786-O renal cell carcinoma cells; experiment: qRT-PCR with siRNA knockdown of STING pathway genes, 786-O cells; assay type: cell-based, Human; settings: 2 μM, 24 h
Protocol: as §1, with “Quantitative reverse-transcriptase polymerase chain reaction (RT-PCR) assay 786-O” for “A-498”, “RPMI-1640 medium” for “Minimal Essential Medium”

SMILES	CCL5 protein secretion (4T1 breast cancer cells)	CXCL10 protein secretion (4T1 breast cancer cells)	increase in mRNA expression of CCL5 [1] [fold]	increase in mRNA expression of CXCL10 [1] [fold]	increase in mRNA expression of IFNB1 [1] [fold]	increase in mRNA expression of IRF7 [1] [fold]	IFNB1, IRF7, CCL5 and CXCL10 expression with siRNA knockdown of CGAS [1]	IFNB1, IRF7, CCL5 and CXCL10 expression with siRNA knockdown of STING [1]	IFNB1, IRF7, CCL5 or CXCL10 expression with siRNA knockdown of TBK1 [1]	increase in mRNA expression of CCL5 [2] [fold]	increase in mRNA expression of CXCL10 [2] [fold]	increase in mRNA expression of IFNB1 [2] [fold]	increase in mRNA expression of IRF7 [2] [fold]
C[C@@H]1COCCN1c1cc(=O)n2c(n1)N(Cc1cncc(Cl)c1)[C@H](C(F)(F)F)CC2 [Compound 2, (S)-9-((5-chloropyridin-3-yl)methyl)-2-((R)-3-methylmorpholino)-8-(trifluoromethyl)-6,7,8,9-tetrahydro-4H-pyrimido[1,2-a]pyrimidin-4-one]	increased	increased	~8	~10	> 10	~7	complete ablation	complete ablation	moderate or negligible changes	~4	~5	~4	~3
C[C@@H]1COCCN1c1cc(N2CCCC[C@@H]2C(F)(F)F)[nH]c(=O)c1 [Compound 1, 4-((R)-3-methylmorpholino)-6-((R)-2-(trifluoromethyl)piperidin-1-yl)pyridin-2(1H)-one]	increased	increased	> 4	> 5	> 5	~4	complete ablation	complete ablation	moderate or negligible changes	> 3	~5	> 5	> 2
